Test results from patent publication US9428492B2, “Secondary alcohol substituted triazoles as PDE10 inhibitors” (Merck Sharp & Dohme Corp., priority 2012, dated 2016).

Target: human PDE10A2 (Homo sapiens (Human), UniProt Q9Y233)
Assay: PDE10 fluorescence polarization (IMAP FP) inhibition assay
Assay type: biochemical
Settings: read-out: PDE10a Ki
Method: The activity of the compounds in accordance with the present invention as PDE10 inhibitors may be readily determined without undue experimentation using a fluorescence polarization (FP) methodology that is well known in the art (Huang, W., et al., J. Biomol Screen, 2002, 7: 215).
In a typical experiment the PDE10 inhibitory activity of the compounds of the present invention was determined in accordance with the following experimental method. PDE10A2 was amplified from human fetal brain cDNA (Clontech, Mountain View, Calif.) using a forward primer corresponding to nucleotides 56-77 of human PDE10A2 (Accession No. AF127480, Genbank Identifier 4894716), containing a Kozak consensus sequence, and a reverse primer corresponding to nucleotides 2406-2413 of human PDE10A2 (Accession No. AF127480, Genbank Identifier 4894716). Amplification with Easy-A polymerase (Stratagene, La Jolla, Calif.) was 95° C. for 2 minutes followed by thirty three cycles of 95° C. for 40 seconds, 55° C. for 30 seconds, and 72° C. for 2 minutes 48 seconds. Final extension was 72° C. for 7 minutes. The PCR product was TA cloned into pcDNA3.2-TOPO (Invitrogen, Carlsbad, Calif.) according to standard protocol. AD293 cells with 70-80% confluency were transiently transfected with human PDE10A2/pcDNA3.2-TOPO using Lipofectamine 2000 according to manufacturer specifications (Invitrogen, Carlsbad, Calif.). Cells were harvested 48 hours post-transfection and lysed by sonication (setting 3, 10×5 sec pulses) in a buffer containing 20 mM HEPES, 1 mM EDTA and protease inhibitor cocktail (Roche). Lysate was collected by centrifugation at 75,000×g for 20 minutes. Supernatant containing the cytoplasmic fraction was used for evaluation of PDE10A2 activity. The fluorescence polarization assay for cyclic nucleotide phosphodiesterases was performed using an IMAP® FP kit supplied by Molecular Devices, Sunnyvale, Calif. (product # R8139). IMAP® technology has been applied previously to phosphodiesterase assays (Huang, W., et al., J. Biomol Screen, 2002, 7: 215). Assays were performed at room temperature in 384-well microtiter plates with an incubation volume of 20.2 μL. Solutions of test compounds were prepared in DMSO and serially diluted with DMSO to yield 8 μL of each of 10 solutions differing by 3-fold in concentration, at 32 serial dilutions per plate. […] 0% of inhibition is determined by using DMSO (1% final concentrations).
A Labcyte Echo 555 (Labcyte, Sunnyvale, Calif.) is used to dispense 200 nL from each well of the titration plate to the 384 well assay plate. A solution of enzyme (1/1600 dilution from aliquots; sufficient to produce 20% substrate conversion) and a separate solution of FAM-labeled cAMP PDE from Molecular Devices (product # R7506), at a final concentration of 50 nM are made in the assay buffer (10 mM Tris HCl, pH 7.2, 10 mM MgCl2, 0.05% NaN3 0.01% Tween-20, and 1 mM DTT). The enzyme and the substrate are then added to the assay plates in two consecutive additions of 10 μL, and then shaken to mix. The reaction is allowed to proceed at room temperature for 30 minutes. […] The enzymatic reaction is stopped by addition of 60 μL of the binding solution to each well of the assay plates and the plates are sealed and shaken for 10 seconds. The plate was incubated at room temperature for at least one hour prior to determining the fluorescence polarization (FP). The parallel and perpendicular fluorescence of each well of the plate was measured using a Perkin Elmer EnVision™ plate reader (Waltham, Mass.).
Fluorescence polarization (mP) was calculated from the parallel (S) and perpendicular (P) fluorescence of each sample well and the analogous values for the median control well, containing only substrate (So and Po), using the following equation: Polarization (mP)=1000*(S/So−P/Po)/(S/So+P/Po).
Dose-inhibition profiles for each compound were characterized by fitting the mP data to a four-parameter equation given below.

Chain of human PDE10A2 (Q9Y233 267-1055): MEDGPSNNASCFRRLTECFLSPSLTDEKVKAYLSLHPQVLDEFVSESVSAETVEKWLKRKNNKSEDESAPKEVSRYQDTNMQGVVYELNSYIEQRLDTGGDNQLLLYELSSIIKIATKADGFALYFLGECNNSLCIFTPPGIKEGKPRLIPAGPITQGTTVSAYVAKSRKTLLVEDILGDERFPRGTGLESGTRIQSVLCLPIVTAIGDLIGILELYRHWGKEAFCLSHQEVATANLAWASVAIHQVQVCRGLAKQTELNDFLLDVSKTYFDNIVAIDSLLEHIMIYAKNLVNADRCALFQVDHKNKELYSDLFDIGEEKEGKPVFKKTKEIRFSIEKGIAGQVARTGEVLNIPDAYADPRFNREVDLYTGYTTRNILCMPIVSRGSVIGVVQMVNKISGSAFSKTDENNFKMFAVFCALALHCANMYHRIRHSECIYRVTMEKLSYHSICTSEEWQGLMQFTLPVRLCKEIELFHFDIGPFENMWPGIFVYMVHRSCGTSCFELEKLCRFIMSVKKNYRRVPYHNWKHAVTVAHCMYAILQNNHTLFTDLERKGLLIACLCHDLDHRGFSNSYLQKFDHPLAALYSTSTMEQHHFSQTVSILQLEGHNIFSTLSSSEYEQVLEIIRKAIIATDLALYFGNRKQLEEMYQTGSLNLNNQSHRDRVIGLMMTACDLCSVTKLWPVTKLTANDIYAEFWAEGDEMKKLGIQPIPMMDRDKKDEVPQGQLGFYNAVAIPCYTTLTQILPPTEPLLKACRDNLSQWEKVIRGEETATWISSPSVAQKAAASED

Row | Ki [nM] | SMILES
1 | 3.2 | Cc1nc(N2CC(c3nc4ccccc4n3C)C2)cc(-n2nc(C)nc2C(O)CC(F)(F)F)n1 (stereo not drawn) [Example 7, 3,3,3-trifluoro-1-(3-methyl-1-(2-methyl-6-(3-(1-methyl-1H-benzo[d]imidazol-2-yl)azetidin-1-yl)pyrimidin-4-yl)-1H-1,2,4-triazol-5-yl)propan-1-ol]
2 | 1 | Cc1nc(C(C)O)n(-c2cc(N3CC(c4nc5ccccc5n4C)C3)nc(C(F)(F)F)n2)n1 (single isomer, unassigned) [Example 8b, 1-(3-methyl-1-(6-(3-(1-methyl-1H-benzo[d]imidazol-2-yl)azetidin-1-yl)-2-(trifluoromethyl)pyrimidin-4-yl)-1H-1,2,4-triazol-5-yl)ethanol]
3 | 4.5 | Cc1nc(N2CC(c3nc4ccccc4n3C)C2)cc(-n2nc(C)nc2C(O)CC(F)(F)F)n1 (single isomer, unassigned) [Example 7a, 3,3,3-trifluoro-1-(3-methyl-1-(2-methyl-6-(3-(1-methyl-1H-benzo[d]imidazol-2-yl)azetidin-1-yl)pyrimidin-4-yl)-1H-1,2,4-triazol-5-yl)propan-1-ol]
4 | 0.39 | Cc1nc(C(C)O)n(-c2cc(N3CC(c4nc5ccccc5n4C)C3)nc(C3CC3)n2)n1 (single isomer, unassigned) [Example 10b, 1-(1-(2-cyclopropyl-6-(3-(1-methyl-1H-benzo[d]imidazol-2-yl)azetidin-1-yl)pyrimidin-4-yl)-3-methyl-1H-1,2,4-triazol-5-yl)ethanol]
5 | 0.11 | Cc1nc(N2CC(c3nc4ccccc4n3C)C2)cc(-n2nc(C)nc2C(O)C(F)(F)F)n1 (racemic) [Example 3, 2,2,2-trifluoro-1-(3-methyl-1-(2-methyl-6-(3-(1-methyl-1H-benzo[d]imidazol-2-yl)azetidin-1-yl)pyrimidin-4-yl)-1H-1,2,4-triazol-5-yl)ethanol]
6 | 1.2 | COc1nc(N2CC(c3nc4ccccc4n3C)C2)cc(-n2nc(C)nc2C(C)O)n1 (stereo not drawn) [Example 9, 1-(1-(2-methoxy-6-(3-(1-methyl-1H-benzo[d]imidazol-2-yl)azetidin-1-yl)pyrimidin-4-yl)-3-methyl-1H-1,2,4-triazol-5-yl)ethanol]
7 | 0.34 | Cc1nc(N2CC(c3nc4ccccc4n3C)C2)cc(-n2nc(C)nc2C(O)CF)n1 (stereo not drawn) [Example 12, 2-fluoro-1-(3-methyl-1-(2-methyl-6-(3-(1-methyl-1H-benzo[d]imidazol-2-yl)azetidin-1-yl)pyrimidin-4-yl)-1H-1,2,4-triazol-5-yl)ethanol]

Second part, the compound before the results:

Row | SMILES | Ki [nM]
8 | Cc1nc([C@H](C)O)n(-c2cc([C@@H]3C[C@H]3c3nc4ccccc4n3C)nc(C(F)(F)F)n2)n1 [Example 17, (S)-1-(3-methyl-1-(6-((1R,2R)-2-(1-methyl-1H-benzo[d]imidazol-2-yl)cyclopropyl)-2-(trifluoromethyl)pyrimidin-4-yl)-1H-1,2,4-triazol-5-yl)ethanol] | 2.8
9 | Cc1nc([C@@H]2C[C@H]2c2nc3ccccc3n2C)cc(-n2nc(C)nc2C(O)C(C)C)n1 (stereo partly drawn) [Example 21, 2-methyl-1-(3-methyl-1-(2-methyl-6-((1R,2R)-2-(1-methyl-1H-benzo[d]imidazol-2-yl)cyclopropyl)pyrimidin-4-yl)-1H-1,2,4-triazol-5-yl)propan-1-ol] | 0.47
10 | CCC(O)c1nc(C)nn1-c1cc(N2CC(c3nc4ccccc4n3C)C2)nc(C)n1 (single isomer, unassigned) [Example 4a, 1-(3-methyl-1-(2-methyl-6-(3-(1-methyl-1H-benzo[d]imidazol-2-yl)azetidin-1-yl)pyrimidin-4-yl)-1H-1,2,4-triazol-5-yl)propan-1-ol] | 1.8
11 | Cc1nc(N2CC(c3nc4ccccc4n3C)C2)cc(-n2nc(C)nc2C(O)C(F)F)n1 (single isomer, unassigned) [Example 11b, 2,2-difluoro-1-(3-methyl-1-(2-methyl-6-(3-(1-methyl-1H-benzo[d]imidazol-2-yl)azetidin-1-yl)pyrimidin-4-yl)-1H-1,2,4-triazol-5-yl)ethanol] | 3
12 | Cc1nc(N2CC(c3nc4ccccc4n3C)C2)cc(-n2nc(C)nc2C(O)C2CC2)n1 (stereo not drawn) [Example 6, cyclopropyl(3-methyl-1-(2-methyl-6-(3-(1-methyl-1H-benzo[d]imidazol-2-yl)azetidin-1-yl)pyrimidin-4-yl)-1H-1,2,4-triazol-5-yl)methanol] | 0.36
13 | Cc1nc(N2CC(c3nc4ccccc4n3C)C2)cc(-n2nc(C)nc2C(O)C(C)C)n1 (single isomer, unassigned) [Example 5a, 2-methyl-1-(3-methyl-1-(2-methyl-6-(3-(1-methyl-1H-benzo[d]imidazol-2-yl)azetidin-1-yl)pyrimidin-4-yl)-1H-1,2,4-triazol-5-yl)propan-1-ol] | 0.34
14 | Cc1nc([C@H](C)O)n(-c2cc([C@@H]3C[C@H]3c3nc4ccccc4n3C)nc(C3CC3)n2)n1 [Example 18, (S)-1-(1-(2-cyclopropyl-6-((1R,2R)-2-(1-methyl-1H-benzo[d]imidazol-2-yl)cyclopropyl)pyrimidin-4-yl)-3-methyl-1H-1,2,4-triazol-5-yl)ethanol] | 0.36
15 | Cc1nc(N2CC(c3nc4ccccc4n3C)C2)cc(-n2nc(C)nc2C(O)C2CC2)n1 (single isomer, unassigned) [Example 6b, cyclopropyl(3-methyl-1-(2-methyl-6-(3-(1-methyl-1H-benzo[d]imidazol-2-yl)azetidin-1-yl)pyrimidin-4-yl)-1H-1,2,4-triazol-5-yl)methanol] | 2.6
16 | Cc1nc(C(C)O)n(-c2cc(N3CC(c4nc5ccccc5n4C)C3)nc(C3CC3)n2)n1 (stereo not drawn) [Example 10, 1-(1-(2-cyclopropyl-6-(3-(1-methyl-1H-benzo[d]imidazol-2-yl)azetidin-1-yl)pyrimidin-4-yl)-3-methyl-1H-1,2,4-triazol-5-yl)ethanol] | 0.21
17 | Cc1nc([C@@H]2C[C@H]2c2nc3ccccc3n2C)cc(-n2nc(C)nc2[C@@H](O)c2ccccc2)n1 [Example 16, (S)-(3-methyl-1-(2-methyl-6-((1R,2R)-2-(1-methyl-1H-benzo[d]imidazol-2-yl)cyclopropyl)pyrimidin-4-yl)-1H-1,2,4-triazol-5-yl)(phenyl)methanol] | 0.62
18 | Cc1nc(C(C)O)n(-c2cc(N3CC(c4nc5ccccc5n4C)C3)nc(C3CC3)n2)n1 (single isomer, unassigned) [Example 10a, 1-(1-(2-cyclopropyl-6-(3-(1-methyl-1H-benzo[d]imidazol-2-yl)azetidin-1-yl)pyrimidin-4-yl)-3-methyl-1H-1,2,4-triazol-5-yl)ethanol] | 0.13
19 | Cc1nc(N2CC(c3nc4ccccc4n3C)C2)cc(-n2nc(C)nc2C(O)C(C)C)n1 (single isomer, unassigned) [Example 5b, 2-methyl-1-(3-methyl-1-(2-methyl-6-(3-(1-methyl-1H-benzo[d]imidazol-2-yl)azetidin-1-yl)pyrimidin-4-yl)-1H-1,2,4-triazol-5-yl)propan-1-ol] | 0.77
20 | Cc1nc(N2CC(c3nc4ccccc4n3C)C2)cc(-n2nc(C)nc2C(O)C(F)F)n1 (single isomer, unassigned) [Example 11a, 2,2-difluoro-1-(3-methyl-1-(2-methyl-6-(3-(1-methyl-1H-benzo[d]imidazol-2-yl)azetidin-1-yl)pyrimidin-4-yl)-1H-1,2,4-triazol-5-yl)ethanol] | 0.65
21 | Cc1nc(C2C[C@H]2c2nc3ccccc3n2C)cc(-n2nc(C)nc2C(O)C(F)(F)F)n1 (stereo partly drawn) [Example 20, 2,2,2-trifluoro-1-(3-methyl-1-(2-methyl-6-((1R,2R)-2-(1-methyl-1H-benzo[d]imidazol-2-yl)cyclopropyl)pyrimidin-4-yl)-1H-1,2,4-triazol-5-yl)ethanol] | 0.55
